Columns and labels:
[1] = molecular target: T1, hα7-wt nAChR-expressing GH4C1 cells (Homo sapiens, UniProt P36544); assay: Patch-clamp current recording (whole-cell voltage clamp), potentiation of the choline current and PAM type; format: cell-based; parameters: key: Type 0 compounds minimally enhance the effect size of the current elicited by 1 mM choline.; Type 1 compounds enhance the effect size of the current elicited by 1 mM choline but minimally alter the kinetics of the receptor.; Type 2 compounds enhance the effect size of the current elicited by 1 mM choline while reducing the rate and/or the extent of desensitization.; Type 3 compounds enhance the effect size of the current elicited by 1 mM choline. When tested at higher concentrations up to 10 μM they completely inhibit desensitization, in particular a 1 mM choline application of 250 milliseconds.; Type 4 compounds allow for an initial desensitization of the receptor followed by a re-opening of the receptor during agonist application; settings: 1 mM choline
T1 construct: expressed in transfected cells
T1 sequence (P36544 23-502): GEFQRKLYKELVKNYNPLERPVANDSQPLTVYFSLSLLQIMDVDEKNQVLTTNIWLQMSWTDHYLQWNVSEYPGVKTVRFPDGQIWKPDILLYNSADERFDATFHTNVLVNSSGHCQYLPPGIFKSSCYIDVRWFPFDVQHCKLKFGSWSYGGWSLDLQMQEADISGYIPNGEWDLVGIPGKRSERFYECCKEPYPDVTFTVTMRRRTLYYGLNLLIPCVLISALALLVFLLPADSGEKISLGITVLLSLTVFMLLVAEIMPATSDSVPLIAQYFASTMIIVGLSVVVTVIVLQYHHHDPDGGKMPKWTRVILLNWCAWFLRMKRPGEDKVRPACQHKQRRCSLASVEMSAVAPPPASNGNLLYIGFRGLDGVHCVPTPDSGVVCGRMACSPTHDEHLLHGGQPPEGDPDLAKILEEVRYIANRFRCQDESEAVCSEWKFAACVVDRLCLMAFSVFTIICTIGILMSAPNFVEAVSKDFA
Outline: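 Whole-cell voltage clamp at −70 mV of GH4C1 cells stably expressing human wild-type α7, with compound co-applied with 1 mM choline via rapid (<100 ms) application; external solution pH 7.3 with 1 mM Ca, CsCl-based internal. Peak-current potentiation relative to choline alone (=100%); compounds reaching ≥200% assigned PAM type 0-4 from desensitization kinetics.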

hα7-wt nAChR = molecular target: T2, hα7-wt nAChR (Homo sapiens, UniProt P36544); assay: Ca2+ flux imaging (FDSS) (Protocol B), potentiation of the choline response; format: cell-based; settings: Ca2+ assay as described in D.1; for EC50: "<5" = activity did not reach a top plateau at maximal concentration; for Emax: read-out: % Efficacy
T2 construct: expressed in transfected cells
T2 sequence (P36544 23-502): as above
Outline: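 Cells expressing hα7-wt nAChR, loaded with fluo-4AM (2 μM final) in HBSS with 10 mM HEPES, 5 mM CaCl2, 0.1% BSA and probenecid; compound (0.01–30 μM) added up to 10 min before 100 μM choline. Peak fluorescence potentiation relative to choline alone (100%); EC50 from sigmoidal curve.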

## CNC(=O)Cn1nc(Nc2ccc(F)cc2)cc1-c1ccc2c(c1)OCCO2 [compound 73]
[1]
  PAM type: 3
hα7-wt nAChR
  EC50: 437 nM
other
  melting point: 169.9 to 177.3 °C

## CN(C)C(=O)CCn1nc(Nc2ccc(F)cc2)cc1-c1ccc2c(c1)OCCO2 [compound 83]
hα7-wt nAChR
  EC50: 117 nM
other
  melting point: 141.6 to 143.2 °C

## CNC(=O)Cn1nc(Nc2cccc(F)c2)cc1-c1ccc2c(c1)OCCO2 [compound 72]
[1]
  PAM type: 2
hα7-wt nAChR
  EC50: 646 nM
other
  melting point: 189.5 to 194 °C

## CNC(=O)Cn1nc(Nc2ccc3c(c2)OC(F)(F)O3)cc1-c1ccc2c(c1)OCCO2 [compound 97]
hα7-wt nAChR
  EC50: 1120 nM
other
  melting point: 171.5 to 171.8 °C

## COc1cccc(-c2cc(Nc3ccc(F)c(F)c3)nn2CCC(=O)N(C)C)c1 [compound 103]
[1]
  PAM type: 2
hα7-wt nAChR
  EC50: 245 nM

## CNC(=O)Cn1nc(Nc2ccc3c(c2)OC(F)(F)O3)cc1-c1ccncc1 [compound 86]
[1]
  PAM type: 3
hα7-wt nAChR
  EC50: 2290 nM

## CCNC(=O)Cn1nc(Nc2cc(Cl)cc(OC)c2)cc1-c1ccnc(C)c1 [compound 108]
[1]
  PAM type: 2
hα7-wt nAChR
  EC50: 1860 nM

## CC[C@H](O)Cn1nc(Nc2ccc(F)c(C(F)(F)F)c2)cc1-c1ccnc(C)c1 [compound 46]
[1]
  PAM type: 0
hα7-wt nAChR
  EC50: 891 nM

## CCNC(=O)Cn1nc(Nc2ccc3c(c2)OC(F)(F)O3)cc1-c1cc(C)nc(C)c1 [compound 153]
[1]
  PAM type: 2
hα7-wt nAChR
  EC50: 417 nM
  Emax: 737%

## CC[C@H](O)Cn1nc(Nc2ccc(F)c(F)c2)cc1-c1cc(C)nc(C)c1 [compound 59]
[1]
  PAM type: 1
hα7-wt nAChR
  EC50: 617 nM

## CNC(=O)Cn1nc(Nc2ccc(F)c(F)c2)cc1-c1cc(C)nc(C)c1 [compound 55]
[1]
  PAM type: 2
hα7-wt nAChR
  EC50: 1700 nM

## CC[C@H](O)Cn1nc(Nc2cccc(Cl)c2)cc1-c1ccnc(C)c1 [compound 185, (alphaS)-3-[(3-chlorophenyl)amino]-alpha-ethyl-5-[2-methyl-4-pyridinyl]-1H-pyrazole-1-ethanol]
[1]
  PAM type: 1
hα7-wt nAChR
  EC50: 1580 nM

## Cc1cc(-c2cc(Nc3ccc(F)c(F)c3F)nn2CCC(=O)N(C)C)ccn1 [compound 166]
[1]
  PAM type: 2
hα7-wt nAChR
  EC50: 295 nM
  Emax: 856%

## CCNC(=O)Cn1nc(Nc2cc(F)c(F)c(F)c2)cc1-c1ccnc(C)c1 [compound 128]
[1]
  PAM type: 2
hα7-wt nAChR
  EC50: 851 nM
  Emax: 643%

## CNC(=O)Cn1nc(Nc2ccc(F)c(F)c2)cc1-c1ccc2c(c1)OCCO2 [compound 7, 3-[(3,4-difluorophenyl)amino]-5-(2,3-dihydro-1,4-benzodioxin-6-yl)-N-methyl-1H-pyrazole-1-acetamide]
[1]
  PAM type: 2
hα7-wt nAChR
  EC50: 195 nM
other
  melting point: 189.5 to 194.5 °C

## CCNC(=O)Cn1nc(Nc2ccc3c(c2)OC(F)(F)O3)cc1-c1ccncc1 [compound 87]
[1]
  PAM type: 3
hα7-wt nAChR
  EC50: 871 nM

Reference: patent US8779158B2, “Trisubstituted pyrazoles as acetylcholine receptor modulators” (Janssen Pharmaceutica NV, priority 2008, dated 2014)
